Usually DC50 stands for the concentration giving 50% degradation. The Dmax is the greatest extent of degradation seen. As usually defined, the IC50 is the concentration at which inhibition is half-maximal. A lower IC50 goes with greater potency.

Molecules are shown by their SMILES. Structures can show the parent of a compound that is named as a salt.

In the first experiment the target is T1, IKZF2 (Homo sapiens, UniProt Q96SW2+Q9UKS7).
T1 construct: host or cells: Jurkat-IKZF2-HiBiT
T1 sequence (Q9UKS7 whole entry): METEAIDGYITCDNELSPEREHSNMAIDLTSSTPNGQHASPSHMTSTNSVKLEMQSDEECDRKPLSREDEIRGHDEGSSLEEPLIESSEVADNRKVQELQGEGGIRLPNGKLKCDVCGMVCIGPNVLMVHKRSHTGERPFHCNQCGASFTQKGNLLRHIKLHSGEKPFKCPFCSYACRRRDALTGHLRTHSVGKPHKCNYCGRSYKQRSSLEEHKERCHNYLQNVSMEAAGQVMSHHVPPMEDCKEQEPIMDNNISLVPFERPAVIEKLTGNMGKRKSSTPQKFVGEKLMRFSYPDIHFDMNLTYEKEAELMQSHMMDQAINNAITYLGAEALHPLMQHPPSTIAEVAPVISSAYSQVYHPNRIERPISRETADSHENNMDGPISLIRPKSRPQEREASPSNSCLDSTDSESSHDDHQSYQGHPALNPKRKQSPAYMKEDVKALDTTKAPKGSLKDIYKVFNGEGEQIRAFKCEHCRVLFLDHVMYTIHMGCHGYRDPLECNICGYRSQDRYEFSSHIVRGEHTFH
T1 sequence (Q96SW2 whole entry): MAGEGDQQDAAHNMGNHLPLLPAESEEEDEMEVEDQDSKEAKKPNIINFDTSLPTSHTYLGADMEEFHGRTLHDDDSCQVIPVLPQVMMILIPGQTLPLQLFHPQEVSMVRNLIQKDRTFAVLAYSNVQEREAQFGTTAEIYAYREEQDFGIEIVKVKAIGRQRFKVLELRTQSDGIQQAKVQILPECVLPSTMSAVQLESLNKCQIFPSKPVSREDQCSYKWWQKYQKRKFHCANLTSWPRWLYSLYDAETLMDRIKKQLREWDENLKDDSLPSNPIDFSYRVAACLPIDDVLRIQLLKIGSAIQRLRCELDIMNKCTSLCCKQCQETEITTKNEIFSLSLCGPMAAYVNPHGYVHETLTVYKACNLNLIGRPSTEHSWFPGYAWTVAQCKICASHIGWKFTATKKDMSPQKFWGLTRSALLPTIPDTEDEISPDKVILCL
T1 sequence (Q16531 2-1140 partner limits assumed): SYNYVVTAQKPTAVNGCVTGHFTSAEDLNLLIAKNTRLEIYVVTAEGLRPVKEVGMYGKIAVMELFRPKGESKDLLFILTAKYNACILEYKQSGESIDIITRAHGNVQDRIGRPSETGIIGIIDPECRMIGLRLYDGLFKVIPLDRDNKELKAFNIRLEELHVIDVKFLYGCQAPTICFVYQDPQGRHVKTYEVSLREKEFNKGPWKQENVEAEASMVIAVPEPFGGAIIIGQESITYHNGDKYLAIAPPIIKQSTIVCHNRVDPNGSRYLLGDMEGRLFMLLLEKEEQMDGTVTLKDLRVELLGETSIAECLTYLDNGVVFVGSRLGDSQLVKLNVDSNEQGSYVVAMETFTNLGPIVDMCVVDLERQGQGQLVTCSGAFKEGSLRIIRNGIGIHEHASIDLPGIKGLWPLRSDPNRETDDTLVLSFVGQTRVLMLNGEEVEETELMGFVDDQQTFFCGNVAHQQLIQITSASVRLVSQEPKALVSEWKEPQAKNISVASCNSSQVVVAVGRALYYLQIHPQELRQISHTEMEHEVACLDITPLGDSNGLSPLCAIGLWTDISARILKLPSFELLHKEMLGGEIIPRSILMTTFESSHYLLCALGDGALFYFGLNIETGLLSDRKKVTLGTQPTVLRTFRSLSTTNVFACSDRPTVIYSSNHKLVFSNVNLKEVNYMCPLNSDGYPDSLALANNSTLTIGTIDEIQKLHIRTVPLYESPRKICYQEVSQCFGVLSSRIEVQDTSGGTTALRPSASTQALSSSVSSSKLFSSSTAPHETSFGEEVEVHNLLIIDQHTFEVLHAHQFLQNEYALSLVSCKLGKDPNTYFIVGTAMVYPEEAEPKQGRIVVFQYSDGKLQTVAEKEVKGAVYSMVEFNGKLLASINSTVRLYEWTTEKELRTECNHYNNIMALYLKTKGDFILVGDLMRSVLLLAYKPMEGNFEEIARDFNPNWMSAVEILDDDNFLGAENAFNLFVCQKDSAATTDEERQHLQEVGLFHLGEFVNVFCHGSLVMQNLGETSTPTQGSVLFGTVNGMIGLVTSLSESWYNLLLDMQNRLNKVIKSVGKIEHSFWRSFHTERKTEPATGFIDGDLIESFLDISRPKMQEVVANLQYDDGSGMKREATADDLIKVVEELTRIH
Kind of experiment: IKZF2 HiBiT degradation assay (Jurkat-IKZF2-HiBiT). The experiment is classed as cell-based. As to conditions: read-out: IKZF2 degradation DC50; Jurkat-IKZF2-HiBiT cells, 24 hours. On the procedure:
Degradation of IKZF2 protein was determined by IKZF2 HiBiT assay using the Jurkat-IKZF2-HiBiT (Promega) cell line. […] Compounds were serially diluted in culture medium, and 20 μl of the diluted compounds were added to the appropriate wells of the plate. After the addition of compounds, the cells were incubated at 37° C. in an atmosphere of 5% CO2 for 24 hours. At the end of treatment, 40 ul of Nano-Glo HiBiT Lytic Detection Reagent (Promega) was added to each well, and then the plates were incubated at room temperature for 10-20 minutes. The luminescent signal was measured using a CALRIOstar plate reader (BMG Labtech). The readings were normalized to the DMSO-treated cells and the IC50 was calculated by nonlinear regression (four parameters sigmoid fitted with variable slope, least squares fit, and no constraint) analysis using the GraphPad Prism 8 software.
(In general: HiBiT is a short tag that completes a luciferase, so light tracks the accessible tagged protein.)
Take `O=C1CC[C@H](N2Cc3cc4c(cc3C2=O)OC[C@@H]2CN(CC3CC5CCC3CC5)CCN42)C(=O)N1` (stereo partly drawn) [Compound C37, (3S)-3-((4aS)-3-(bicyclo[2.2.2]octan-2-ylmethyl)-8-oxo-1,2,3,4,4a,5,8,10-octahydro-9H-pyrazino[1′,2′:4,5][1,4]oxazino[2,3-f]isoindol-9-yl)piperidine-2,6-dione]: the 50% degradation concentration (DC50) is 318 nM.

As for `O=C1CCC(N2Cc3cc4c(cc3C2=O)OC[C@@H]2CN(Cc3ccccc3)CCN42)C(=O)N1` (stereo partly drawn) [Compound C1, 3-((S)-3-benzyl-8-oxo-1,2,3,4,4a,5,8,10-octahydro-9H-pyrazino[1′,2′:4,5][1,4]oxazino[2,3-f]isoindol-9-yl)piperidine-2,6-dione], the DC50 is over 2000 nM.

Regarding `CC(C)(C)OC(=O)N1CCC2(CCC(CN3CCN4c5cc6c(cc5OC[C@@H]4C3)C(=O)N([C@H]3CCC(=O)NC3=O)C6)CC2)CC1` [Compound C38, tert-butyl 9-(((S)-9-((S)-2,6-dioxopiperidin-3-yl)-8-oxo-1,2,4a,5,9,10-hexahydro-8H-pyrazino[1′,2′:4,5][1,4]oxazino[2,3-f]isoindol-3(4H)-yl)methyl)-3-azaspiro[5.5]undecane-3-carboxylate], the half-maximal degradation concentration (DC50) was found to be 424 nM.

For the molecule `O=C1CC[C@H](N2Cc3cc4c(cc3C2=O)OC[C@@H]2CN(CC3CCC3)CCN42)C(=O)N1` [Compound C31, (S)-3-((S)-3-(cyclobutylmethyl)-8-oxo-1,2,3,4,4a,5,8,10-octahydro-9H-pyrazino[1′,2′:4,5][1,4]oxazino[2,3-f]isoindol-9-yl)piperidine-2,6-dione], the DC50 was determined as 1260 nM.

`O=C1CCC(N2Cc3cc4c(cc3C2=O)OC[C@H]2CN(CC3CCCC3)CCN42)C(=O)N1` (stereo partly drawn) [Compound C30, 3-((R)-3-(cyclopentylmethyl)-8-oxo-1,2,3,4,4a,5,8,10-octahydro-9H-pyrazino[1′,2′:4,5][1,4]oxazino[2,3-f]isoindol-9-yl)piperidine-2,6-dione]: the DC50 was over 1000 nM.

Staying with this experiment, now noted: read-out: IKZF2 degradation Dmax (%).
As for `O=C1CC[C@H](N2Cc3cc4c(cc3C2=O)OC[C@@H]2CN(CC3CC5CCC3CC5)CCN42)C(=O)N1` (stereo partly drawn) [Compound C37, (3S)-3-((4aS)-3-(bicyclo[2.2.2]octan-2-ylmethyl)-8-oxo-1,2,3,4,4a,5,8,10-octahydro-9H-pyrazino[1′,2′:4,5][1,4]oxazino[2,3-f]isoindol-9-yl)piperidine-2,6-dione], the Dmax amounted to 69%.

On to `O=C1CCC(N2Cc3cc4c(cc3C2=O)OC[C@@H]2CN(Cc3ccccc3)CCN42)C(=O)N1` (stereo partly drawn) [Compound C1, 3-((S)-3-benzyl-8-oxo-1,2,3,4,4a,5,8,10-octahydro-9H-pyrazino[1′,2′:4,5][1,4]oxazino[2,3-f]isoindol-9-yl)piperidine-2,6-dione], for which the Dmax was 27%.

As to `CC(C)(C)OC(=O)N1CCC2(CCC(CN3CCN4c5cc6c(cc5OC[C@@H]4C3)C(=O)N([C@H]3CCC(=O)NC3=O)C6)CC2)CC1` [Compound C38, tert-butyl 9-(((S)-9-((S)-2,6-dioxopiperidin-3-yl)-8-oxo-1,2,4a,5,9,10-hexahydro-8H-pyrazino[1′,2′:4,5][1,4]oxazino[2,3-f]isoindol-3(4H)-yl)methyl)-3-azaspiro[5.5]undecane-3-carboxylate], the Dmax is 57%.

Take `O=C1CC[C@H](N2Cc3cc4c(cc3C2=O)OC[C@@H]2CN(CC3CCC3)CCN42)C(=O)N1` [Compound C31, (S)-3-((S)-3-(cyclobutylmethyl)-8-oxo-1,2,3,4,4a,5,8,10-octahydro-9H-pyrazino[1′,2′:4,5][1,4]oxazino[2,3-f]isoindol-9-yl)piperidine-2,6-dione]: the Dmax amounted to 58%.

For the molecule `O=C1CCC(N2Cc3cc4c(cc3C2=O)OC[C@H]2CN(CC3CCCC3)CCN42)C(=O)N1` (stereo partly drawn) [Compound C30, 3-((R)-3-(cyclopentylmethyl)-8-oxo-1,2,3,4,4a,5,8,10-octahydro-9H-pyrazino[1′,2′:4,5][1,4]oxazino[2,3-f]isoindol-9-yl)piperidine-2,6-dione], the Dmax is 0%.

The target in another experiment is wild-type human CRBN protein (Homo sapiens, UniProt Q96SW2). As to the kind of experiment: biochemical.
wild-type human CRBN protein, sequence (Q96SW2 whole entry): as the sequence (Q96SW2 whole entry) above
Settings: not given
On to `O=C1CCC(N2Cc3cc4c(cc3C2=O)OC[C@@H]2CNCCN42)C(=O)N1` (stereo partly drawn) [Compound B1, 3-((S)-8-oxo-1,2,3,4,4a,5,8,10-octahydro-9H-pyrazino[1′,2′:4,5][1,4]oxazino[2,3-f]isoindol-9-yl)piperidine-2,6-dione hydrochloride salt], for which half-maximal inhibition (IC50) was put at 2100 nM.

The molecule `N[C@H]1C[C@H]2COc3cc4c(cc3N2C1)CN([C@H]1CCC(=O)NC1=O)C4=O` [Compound B17, (S)-3-((2S,3aS)-2-amino-7-oxo-2,3,3a,4,7,9-hexahydro-1H,8H-pyrrolo[1′,2′:4,5][1,4]oxazino[2,3-f]isoindol-8-yl)piperidine-2,6-dione] registered an IC50 of 130 nM.

Consider `O=C1CC[C@@H](N2Cc3cc4c(cc3C2=O)OC[C@@H]2CNCCN42)C(=O)N1` [Compound B2, (R)-3-((S)-8-oxo-1,2,3,4,4a,5,8,10-octahydro-9H-pyrazino[1′,2′:4,5][1,4]oxazino[2,3-f]isoindol-9-yl)piperidine-2,6-dione], for which the IC50 was found to be 5200 nM.

In turn, `O=C1CC[C@H](NC(=O)c2ccc3c(c2)OC[C@H]2CNCCN32)C(=O)N1` [Compound B22, (R)—N—((S)-2,6-dioxopiperidin-3-yl)-1,2,3,4,4a,5-hexahydrobenzo[b]pyrazino[1,2-d][1,4]oxazine-8-carboxamide] displayed a half-inhibitory concentration (IC50) of 23000 nM.

As for `O=C1CC[C@H](N2Cc3c(ccc4c3OC[C@@H]3CN(Cc5ccc(C(F)F)cc5)CCN43)C2=O)C(=O)N1` [Compound C11, (S)-3-((S)-7-(4-(difluoromethyl)benzyl)-1-oxo-1,3,5,5a,6,7,8,9-octahydro-2H-pyrazino[1′,2′:4,5][1,4]oxazino[2,3-e]isoindol-2-yl)piperidine-2,6-dione], it took 90 nM to reach half-maximal inhibition (IC50).

As to `CN(C(=O)c1ccc2c(c1)OC[C@H]1CNCCN21)C1CCC(=O)NC1=O` (stereo partly drawn) [Compound B21, (4aR)—N-(2,6-dioxopiperidin-3-yl)-N-methyl-1,2,3,4,4a,5-hexahydrobenzo[b]pyrazino[1,2-d][1,4]oxazine-8-carboxamide], the IC50 is 4600 nM.

`CN(C(=O)c1ccc2c(n1)OC[C@H]1CNCCN21)C1CCC(=O)NC1=O` (stereo partly drawn) [Compound B20, (4aR)-N-(2,6-dioxopiperidin-3-yl)-N-methyl-1,2,3,4,4a,5-hexahydropyrazino[1,2-d]pyrido[2,3-b][1,4]oxazine-8-carboxamide] came in with an IC50 of 17500 nM.

Consider `O=C1CC[C@H](NC(=O)c2ccc3c(n2)OC[C@H]2CNCCN32)C(=O)N1` [Compound B19, (R)-N-((S)-2,6-dioxopiperidin-3-yl)-1,2,3,4,4a,5-hexahydropyrazino[1,2-d]pyrido [2,3-b][1,4]oxazine-8-carboxamide], for which 30200 nM corresponded to half-maximal inhibition (IC50).

`CC(C)(C)OC(=O)N1CCN2c3cc4c(cc3OC[C@@H]2C1)C(=O)N([C@H]1CCC(=O)NC1=O)C4` [Compound B3, (S)-tert-butyl (4aS)-9-(2,6-dioxopiperidin-3-yl)-8-oxo-1,2,4a,5,9,10-hexahydro-8H-pyrazino[1′,2′:4,5][1,4]oxazino[2,3-f]isoindole-3(4H)-carboxylate] showed an IC50 of 1700 nM.

With `CN(C(=O)c1ccc2c(c1)OC[C@@H]1CNCCN21)C1CCC(=O)NC1=O` (stereo partly drawn) [Compound B24, (4aS)—N-(2,6-dioxopiperidin-3-yl)-N-methyl-1,2,3,4,4a,5-hexahydrobenzo[b]pyrazino[1,2-d][1,4]oxazine-8-carboxamide], 3400 nM corresponded to half-maximal inhibition (IC50).

In turn, `CN1CCN2c3cc4c(cc3OC[C@@H]2C1)C(=O)N(C1CCC(=O)NC1=O)C4` (stereo partly drawn) [Compound B5, 3-((S)-3-methyl-8-oxo-1,2,3,4,4a,5,8,10-octahydro-9H-pyrazino[1′,2′:4,5][1,4]oxazino[2,3-f]isoindol-9-yl)piperidine-2,6-dione] gave an IC50 of 920 nM.

With `CCN1CCN2c3ccc4c(c3OC[C@H]2C1)CN([C@H]1CCC(=O)NC1=O)C4=O` [Compound C8, (S)-3-((R)-7-ethyl-1-oxo-1,3,5,5a,6,7,8,9-octahydro-2H-pyrazino[1′,2′:4,5][1,4]oxazino[2,3-e]isoindol-2-yl)piperidine-2,6-dione], the IC50 was found to be 470 nM.

For the molecule `O=C1CC[C@H](NC(=O)c2ccc3c(c2)OC[C@@H]2CNCCN32)C(=O)N1` [Compound B23, (S)—N—((S)-2,6-dioxopiperidin-3-yl)-1,2,3,4,4a,5-hexahydrobenzo[b]pyrazino[1,2-d][1,4]oxazine-8-carboxamide], 25000 nM corresponded to half-maximal inhibition (IC50).

Turning to `CN1CCN2c3cc4c(cc3NC(=O)[C@@H]2C1)C(=O)N(C1CCC(=O)NC1=O)C4` (stereo partly drawn) [Compound B10, (4aS)-9-(2,6-dioxopiperidin-3-yl)-3-methyl-2,3,4,4a,9,10-hexahydropyrazino[1,2-a]pyrrolo[3,4-g]quinoxaline-5,8(1H,6H)-dione], the IC50 stood at 600 nM.

In the case of `O=C1CCC(N2Cc3cc4c(cc3C2=O)OC[C@H]2CNCCN42)C(=O)N1` (stereo partly drawn) [Compound B6, 3-((R)-8-oxo-1,2,3,4,4a,5,8,10-octahydro-9H-pyrazino[1′,2′:4,5][1,4]oxazino[2,3-f]isoindol-9-yl)piperidine-2,6-dione trifluoroacetate salt], half-maximal inhibition (IC50) required 3100 nM.

The molecule `CC(=O)N1CCN2c3ccc4c(c3OC[C@H]2C1)CN([C@H]1CCC(=O)NC1=O)C4=O` [Compound C9, (S)-3-((R)-7-acetyl-1-oxo-1,3,5,5a,6,7,8,9-octahydro-2H-pyrazino[1′,2′:4,5][1,4]oxazino[2,3-e]isoindol-2-yl)piperidine-2,6-dione] came in with an IC50 of 180 nM.

The molecule `O=C1CCC(N2Cc3c(ccc4c3N3CCNC[C@H]3CO4)C2=O)C(=O)N1` (stereo in doubt) [Compound B16, (R)-3-((S)-3-oxo-1,3,7,7a,8,9,10,11-octahydro-2H-pyrazino[1′,2′:4,5][1,4]oxazino[3,2-e]isoindol-2-yl)piperidine-2,6-dione] displayed an IC50 of 1400 nM.

Turning to `O=C1CC[C@H](N2Cc3c(ccc4c3OC[C@@H]3CN(Cc5ccc(F)cc5Cl)CCN43)C2=O)C(=O)N1` [Compound C13, (S)-3-((S)-7-(2-chloro-4-fluorobenzyl)-1-oxo-1,3,5,5a,6,7,8,9-octahydro-2H-pyrazino[1′,2′:4,5][1,4]oxazino[2,3-e]isoindol-2-yl)piperidine-2,6-dione], the IC50 worked out at 90 nM.

The molecule `N[C@H]1C[C@H]2COc3cc4c(cc3N2C1)C(=O)N(C1CCC(=O)NC1=O)C4=O` (some centres unmarked) [Compound B18] returned an IC50 of 220 nM.

Take `CN1C[C@@H]2CNCCN2c2cc3c(cc21)C(=O)N(C1CCC(=O)NC1=O)C3` (stereo partly drawn) [Compound B7, 3-((S)-6-methyl-8-oxo-2,3,4,4a,5,6,8,10-octahydropyrazino[1,2-a]pyrrolo[3,4-g]quinoxalin-9(1H)-yl)piperidine-2,6-dione trifluoroacetate salt]: 740 nM corresponded to half-maximal inhibition (IC50).

`CN1CCN2c3ccc4c(c3N(C)C[C@@H]2C1)CN(C1CCC(=O)NC1=O)C4=O` (stereo partly drawn) [Compound B12, 3-((S)-4,7-dimethyl-1-oxo-3,4,5,5a,6,7,8,9-octahydropyrazino[1,2-a]pyrrolo[3,4-f]quinoxalin-2(1H)-yl)piperidine-2,6-dione] returned a half-inhibitory concentration (IC50) of 580 nM.

Consider `O=C1CC[C@H](N2Cc3c(ccc4c3OC[C@@H]3CN(Cc5ccc(F)c(F)c5)CCN43)C2=O)C(=O)N1` [Compound C12, (S)-3-((S)-7-(3,4-difluorobenzyl)-1-oxo-1,3,5,5a,6,7,8,9-octahydro-2H-pyrazino[1′,2′:4,5][1,4]oxazino[2,3-e]isoindol-2-yl)piperidine-2,6-dione], for which it took 240 nM to reach half-maximal inhibition (IC50).

These data come from patent US20260265271A1, “Cereblon Ligands and Uses Thereof” (REGENTS OF THE UNIVERSITY OF MICHIGAN, priority 2022, published 2026).
